Test system: 777334-354-R2-J4-PDC tumor spheroids with HUVEC/MSC, viability
Assay: Anticancer human tumor 777334-354-R2-J4-PDC patient-derived pancreatic adenocarcinoma cell line growth inhibition [GQUAD]
Details: for IC50: curve of first compound; for viability, T/C: stronger effect = lower value
In short: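 Multi-cell-type spheroids of tumor cells with HUVEC and mesenchymal stem cells, treated with drug combinations. Concentrations descend in half-log steps from near clinical Cmax, or from 10 microM where Cmax is unknown; viability read-out.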

[1] = second compound 0.0316 µM, first compound 0.0316 µM
[2] = second compound 0.0316 µM, first compound 0.1 µM
[3] = second compound 0.0316 µM, first compound 0.316 µM
[4] = second compound 0.0316 µM, first compound 1 µM
[5] = second compound 0.0316 µM, first compound 3.16 µM
[6] = second compound 0.0316 µM, first compound 10 µM
[7] = second compound 0.1 µM, first compound 0.0316 µM
[8] = second compound 0.1 µM, first compound 0.1 µM
[9] = second compound 0.1 µM, first compound 0.316 µM
[10] = second compound 0.1 µM, first compound 1 µM
[11] = second compound 0.1 µM, first compound 3.16 µM
[12] = second compound 0.1 µM, first compound 10 µM
[13] = second compound 0.316 µM, first compound 0.0316 µM
[14] = second compound 0.316 µM, first compound 0.1 µM
[15] = second compound 0.316 µM, first compound 0.316 µM
[16] = second compound 0.316 µM, first compound 1 µM
[17] = second compound 0.316 µM, first compound 3.16 µM
[18] = second compound 0.316 µM, first compound 10 µM
[19] = second compound 1 µM, first compound 0.0316 µM
[20] = second compound 1 µM, first compound 0.1 µM
[21] = second compound 1 µM, first compound 0.316 µM
[22] = second compound 1 µM, first compound 1 µM
[23] = second compound 1 µM, first compound 3.16 µM
[24] = second compound 1 µM, first compound 10 µM
[25] = second compound 3.16 µM, first compound 0.0316 µM
[26] = second compound 3.16 µM, first compound 0.1 µM
[27] = second compound 3.16 µM, first compound 0.316 µM
[28] = second compound 3.16 µM, first compound 1 µM
[29] = second compound 3.16 µM, first compound 3.16 µM
[30] = second compound 3.16 µM, first compound 10 µM
[31] = second compound 10 µM, first compound 0.0316 µM
[32] = second compound 10 µM, first compound 0.1 µM
[33] = second compound 10 µM, first compound 0.316 µM
[34] = second compound 10 µM, first compound 1 µM
[35] = second compound 10 µM, first compound 3.16 µM
[36] = second compound 10 µM, first compound 10 µM
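Also: spheroids exposed to compounds for 7 days before readout.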

## O=C(NO)c1cnc(N2CCN(S(=O)(=O)c3ccc4ccccc4c3)CC2)nc1 + CN(C)c1ccc(Nc2c3ccc(NC(=O)CCN4CCCC4)cc3nc3cc(NC(=O)CCN4CCCC4)ccc23)cc1
Second compound 0.0316 µM
  IC50: 926 nM
Second compound 0.1 µM
  IC50: 1290 nM
Second compound 0.316 µM
  IC50: 1070 nM
Second compound 1 µM
  IC50: 852 nM
Second compound 3.16 µM
  IC50: 954 nM
Second compound 10 µM
  IC50: 1010 nM
[1]
  viability, T/C: 103%
[2]
  viability, T/C: 89.5%
[3]
  viability, T/C: 79.4%
[4]
  viability, T/C: 50.8%
[5]
  viability, T/C: 11.1%
[6]
  viability, T/C: 0.3%
[7]
  viability, T/C: 91.5%
[8]
  viability, T/C: 90.6%
[9]
  viability, T/C: 83.5%
[10]
  viability, T/C: 62.3%
[11]
  viability, T/C: 8.7%
[12]
  viability, T/C: 1.67%
[13]
  viability, T/C: 86.8%
[14]
  viability, T/C: 94.7%
[15]
  viability, T/C: 76.6%
[16]
  viability, T/C: 54.8%
[17]
  viability, T/C: 10.9%
[18]
  viability, T/C: 2.03%
[19]
  viability, T/C: 84.3%
[20]
  viability, T/C: 80.8%
[21]
  viability, T/C: 62.5%
[22]
  viability, T/C: 54.2%
[23]
  viability, T/C: 12%
[24]
  viability, T/C: 0.73%
[25]
  viability, T/C: 86.3%
[26]
  viability, T/C: 72.1%
[27]
  viability, T/C: 65.9%
[28]
  viability, T/C: 54%
[29]
  viability, T/C: 10.9%
[30]
  viability, T/C: 0.96%
[31]
  viability, T/C: 66%
[32]
  viability, T/C: 65.3%
[33]
  viability, T/C: 63.1%
[34]
  viability, T/C: 50.4%
[35]
  viability, T/C: 11.1%
[36]
  viability, T/C: 0.95%

## C=CCn1c(=O)c2cnc(Nc3ccc(N4CCN(C)CC4)cc3)nc2n1-c1cccc(C(C)(C)O)n1 + Cc1[nH]c2ccc(F)cc2c1-c1nc2c3cccnc3c3ncccc3c2[nH]1
Second compound 0.0316 µM
  IC50: 725 nM
Second compound 0.1 µM
  IC50: 869 nM
Second compound 0.316 µM
  IC50: 738 nM
Second compound 1 µM
  IC50: 710 nM
Second compound 3.16 µM
  IC50: 31.6 nM
Second compound 10 µM
  IC50: < 31.6 nM
[1]
  viability, T/C: 100%
[2]
  viability, T/C: 106%
[3]
  viability, T/C: 79.5%
[4]
  viability, T/C: 39.5%
[5]
  viability, T/C: 30.6%
[6]
  viability, T/C: 34.6%
[7]
  viability, T/C: 87.5%
[8]
  viability, T/C: 92.9%
[9]
  viability, T/C: 78%
[10]
  viability, T/C: 46.6%
[11]
  viability, T/C: 33.1%
[12]
  viability, T/C: 34.5%
[13]
  viability, T/C: 94.3%
[14]
  viability, T/C: 99.8%
[15]
  viability, T/C: 82.8%
[16]
  viability, T/C: 38.3%
[17]
  viability, T/C: 36.7%
[18]
  viability, T/C: 30.9%
[19]
  viability, T/C: 75.3%
[20]
  viability, T/C: 77.5%
[21]
  viability, T/C: 73.1%
[22]
  viability, T/C: 40.1%
[23]
  viability, T/C: 34%
[24]
  viability, T/C: 28.1%
[25]
  viability, T/C: 50.4%
[26]
  viability, T/C: 36.9%
[27]
  viability, T/C: 50.8%
[28]
  viability, T/C: 12.8%
[29]
  viability, T/C: 14%
[30]
  viability, T/C: 14.2%
[31]
  viability, T/C: 31.7%
[32]
  viability, T/C: 27.5%
[33]
  viability, T/C: 24.7%
[34]
  viability, T/C: 14.8%
[35]
  viability, T/C: 14.1%
[36]
  viability, T/C: 11.2%

## COc1cc(C2c3cc4c(cc3C(OC3OC5COC(C)OC5C(O)C3O)C3COC(=O)C23)OCO4)cc(OC)c1O (stereo unspecified) + Cc1[nH]c2ccc(F)cc2c1-c1nc2c3cccnc3c3ncccc3c2[nH]1
Second compound 0.0316 µM
  IC50: 6310 nM
Second compound 0.1 µM
  IC50: 7250 nM
Second compound 0.316 µM
  IC50: 5370 nM
Second compound 1 µM
  IC50: 3270 nM
Second compound 3.16 µM
  IC50: < 31.6 nM
Second compound 10 µM
  IC50: < 31.6 nM
[1]
  viability, T/C: 95.9%
[2]
  viability, T/C: 91%
[3]
  viability, T/C: 90.1%
[4]
  viability, T/C: 71.4%
[5]
  viability, T/C: 64.4%
[6]
  viability, T/C: 41.5%
[7]
  viability, T/C: 104%
[8]
  viability, T/C: 91.7%
[9]
  viability, T/C: 90.2%
[10]
  viability, T/C: 72.1%
[11]
  viability, T/C: 63.4%
[12]
  viability, T/C: 44.7%
[13]
  viability, T/C: 72.8%
[14]
  viability, T/C: 88.6%
[15]
  viability, T/C: 84.1%
[16]
  viability, T/C: 80%
[17]
  viability, T/C: 58.8%
[18]
  viability, T/C: 39.7%
[19]
  viability, T/C: 89.5%
[20]
  viability, T/C: 78.7%
[21]
  viability, T/C: 73.5%
[22]
  viability, T/C: 63.6%
[23]
  viability, T/C: 54.1%
[24]
  viability, T/C: 32.3%
[25]
  viability, T/C: 36.6%
[26]
  viability, T/C: 47.1%
[27]
  viability, T/C: 33.7%
[28]
  viability, T/C: 22.4%
[29]
  viability, T/C: 22.2%
[30]
  viability, T/C: 15.9%
[31]
  viability, T/C: 32.6%
[32]
  viability, T/C: 22.6%
[33]
  viability, T/C: 27.6%
[34]
  viability, T/C: 15.1%
[35]
  viability, T/C: 16%
[36]
  viability, T/C: 12%
